Test system: MDA-MB-468 complex spheroids with HUVEC/MSC, viability
Assay: Anticancer human tumor MDA-MB-468 cell line growth inhibition;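 note: spheroids exposed to agents for seven days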;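 for viability, T/C: 100% = DMSO vehicle control viability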
Details: for IC50: curve of first compound; for viability, T/C: stronger effect = lower value
Summary of the method: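 Multicellular complex spheroids of tumor cells with human endothelial cells (HUVEC) and mesenchymal stem cells; the LSD1 inhibitor iadademstat was combined with standard-of-care or investigational agents. Top concentration at or near clinical Cmax, half-log dilutions; final DMSO ≤0.25%.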

[1] = second compound 0.1 µM, first compound 0.000316 µM
[2] = second compound 0.1 µM, first compound 0.001 µM
[3] = second compound 0.1 µM, first compound 0.00316 µM
[4] = second compound 0.1 µM, first compound 0.01 µM
[5] = second compound 0.1 µM, first compound 0.0316 µM
[6] = second compound 0.1 µM, first compound 0.1 µM
[7] = second compound 0.316 µM, first compound 0.000316 µM
[8] = second compound 0.316 µM, first compound 0.001 µM
[9] = second compound 0.316 µM, first compound 0.00316 µM
[10] = second compound 0.316 µM, first compound 0.01 µM
[11] = second compound 0.316 µM, first compound 0.0316 µM
[12] = second compound 0.316 µM, first compound 0.1 µM
[13] = second compound 1 µM, first compound 0.000316 µM
[14] = second compound 1 µM, first compound 0.001 µM
[15] = second compound 1 µM, first compound 0.00316 µM
[16] = second compound 1 µM, first compound 0.01 µM
[17] = second compound 1 µM, first compound 0.0316 µM
[18] = second compound 1 µM, first compound 0.1 µM
[19] = second compound 3.16 µM, first compound 0.000316 µM
[20] = second compound 3.16 µM, first compound 0.001 µM
[21] = second compound 3.16 µM, first compound 0.00316 µM
[22] = second compound 3.16 µM, first compound 0.01 µM
[23] = second compound 3.16 µM, first compound 0.0316 µM
[24] = second compound 3.16 µM, first compound 0.1 µM
[25] = second compound 10 µM, first compound 0.000316 µM
[26] = second compound 10 µM, first compound 0.001 µM
[27] = second compound 10 µM, first compound 0.00316 µM
[28] = second compound 10 µM, first compound 0.01 µM
[29] = second compound 10 µM, first compound 0.0316 µM
[30] = second compound 10 µM, first compound 0.1 µM

## CC(C)CC(NC(=O)C(Cc1ccccc1)NC(=O)c1cnccn1)B(O)O (stereo not given) + NC1CC1c1ccc(-c2cccc(O)c2)cc1
Second compound 0.1 µM
  IC50: < 0.316 nM
Second compound 0.316 µM
  IC50: < 0.316 nM
Second compound 1 µM
  IC50: < 0.316 nM
Second compound 3.16 µM
  IC50: < 0.316 nM
Second compound 10 µM
  IC50: < 0.316 nM
[1]
  viability, T/C: 5.95%
[2]
  viability, T/C: 0.09%
[3]
  viability, T/C: 0.06%
[4]
  viability, T/C: 0.05%
[5]
  viability, T/C: 0.08%
[6]
  viability, T/C: 0.18%
[7]
  viability, T/C: 6.43%
[8]
  viability, T/C: 0.09%
[9]
  viability, T/C: 0.05%
[10]
  viability, T/C: 0.07%
[11]
  viability, T/C: 0.08%
[12]
  viability, T/C: 0.17%
[13]
  viability, T/C: 5.88%
[14]
  viability, T/C: 0.08%
[15]
  viability, T/C: 0.05%
[16]
  viability, T/C: 0.04%
[17]
  viability, T/C: 0.06%
[18]
  viability, T/C: 0.17%
[19]
  viability, T/C: 5.66%
[20]
  viability, T/C: 0.06%
[21]
  viability, T/C: 0.07%
[22]
  viability, T/C: 0.04%
[23]
  viability, T/C: 0.14%
[24]
  viability, T/C: 0.15%
[25]
  viability, T/C: 3.55%
[26]
  viability, T/C: 0.16%
[27]
  viability, T/C: 0.12%
[28]
  viability, T/C: 0.12%
[29]
  viability, T/C: 0.14%
[30]
  viability, T/C: 0.2%

## CC(C)CC(NC(=O)CNC(=O)c1cc(Cl)ccc1Cl)B1OC(=O)CC(CC(=O)O)(C(=O)O)O1 (stereo not given) + NC1CC1c1ccc(-c2cccc(O)c2)cc1
Second compound 0.1 µM
  IC50: 2.57 nM
Second compound 0.316 µM
  IC50: 2.49 nM
Second compound 1 µM
  IC50: 2.74 nM
Second compound 3.16 µM
  IC50: 2.32 nM
Second compound 10 µM
  IC50: 1.54 nM
[1]
  viability, T/C: 111%
[2]
  viability, T/C: 106%
[3]
  viability, T/C: 37.6%
[4]
  viability, T/C: 4.72%
[5]
  viability, T/C: 0.18%
[6]
  viability, T/C: 0.16%
[7]
  viability, T/C: 118%
[8]
  viability, T/C: 94.2%
[9]
  viability, T/C: 39%
[10]
  viability, T/C: 5.32%
[11]
  viability, T/C: 0.16%
[12]
  viability, T/C: 0.15%
[13]
  viability, T/C: 105%
[14]
  viability, T/C: 109%
[15]
  viability, T/C: 41.8%
[16]
  viability, T/C: 5.14%
[17]
  viability, T/C: 0.2%
[18]
  viability, T/C: 0.14%
[19]
  viability, T/C: 106%
[20]
  viability, T/C: 100%
[21]
  viability, T/C: 31.4%
[22]
  viability, T/C: 5.19%
[23]
  viability, T/C: 0.17%
[24]
  viability, T/C: 0.14%
[25]
  viability, T/C: 71.4%
[26]
  viability, T/C: 62.5%
[27]
  viability, T/C: 28.9%
[28]
  viability, T/C: 4%
[29]
  viability, T/C: 0.22%
[30]
  viability, T/C: 0.24%

## Nc1ccccc1NC(=O)c1ccc(CNC(=O)OCc2cccnc2)cc1 + NC1CC1c1ccc(-c2cccc(O)c2)cc1
Second compound 0.1 µM
  IC50: 66.3 nM
Second compound 0.316 µM
  IC50: 61.8 nM
Second compound 1 µM
  IC50: 56.8 nM
Second compound 3.16 µM
  IC50: 60.5 nM
Second compound 10 µM
  IC50: 48.2 nM
Second compound 0.1 µM, first compound 0.00949 µM
  viability, T/C: 101%
Second compound 0.1 µM, first compound 0.03 µM
  viability, T/C: 90.5%
Second compound 0.1 µM, first compound 0.0949 µM
  viability, T/C: 31.8%
Second compound 0.1 µM, first compound 0.3 µM
  viability, T/C: 2.33%
Second compound 0.1 µM, first compound 0.949 µM
  viability, T/C: 0.21%
Second compound 0.1 µM, first compound 3 µM
  viability, T/C: 0.17%
Second compound 0.316 µM, first compound 0.00949 µM
  viability, T/C: 90.7%
Second compound 0.316 µM, first compound 0.03 µM
  viability, T/C: 86.1%
Second compound 0.316 µM, first compound 0.0949 µM
  viability, T/C: 28.6%
Second compound 0.316 µM, first compound 0.3 µM
  viability, T/C: 2.63%
Second compound 0.316 µM, first compound 0.949 µM
  viability, T/C: 0.2%
Second compound 0.316 µM, first compound 3 µM
  viability, T/C: 0.15%
Second compound 1 µM, first compound 0.00949 µM
  viability, T/C: 108%
Second compound 1 µM, first compound 0.03 µM
  viability, T/C: 78.6%
Second compound 1 µM, first compound 0.0949 µM
  viability, T/C: 27.5%
Second compound 1 µM, first compound 0.3 µM
  viability, T/C: 2.4%
Second compound 1 µM, first compound 0.949 µM
  viability, T/C: 0.19%
Second compound 1 µM, first compound 3 µM
  viability, T/C: 0.13%
Second compound 3.16 µM, first compound 0.00949 µM
  viability, T/C: 92%
Second compound 3.16 µM, first compound 0.03 µM
  viability, T/C: 88%
Second compound 3.16 µM, first compound 0.0949 µM
  viability, T/C: 25.7%
Second compound 3.16 µM, first compound 0.3 µM
  viability, T/C: 2.56%
Second compound 3.16 µM, first compound 0.949 µM
  viability, T/C: 0.16%
Second compound 3.16 µM, first compound 3 µM
  viability, T/C: 0.14%
Second compound 10 µM, first compound 0.00949 µM
  viability, T/C: 72.1%
Second compound 10 µM, first compound 0.03 µM
  viability, T/C: 68.1%
Second compound 10 µM, first compound 0.0949 µM
  viability, T/C: 24.5%
Second compound 10 µM, first compound 0.3 µM
  viability, T/C: 2.72%
Second compound 10 µM, first compound 0.949 µM
  viability, T/C: 0.24%
Second compound 10 µM, first compound 3 µM
  viability, T/C: 0.2%

— PubChem BioAssay AID1918954 (Molecular Pharmacology Branch, DTP, NCI, 2023)
